In patent US20180352845A1, “NUTRITIONAL COMPOSITIONS AND INFANT FORMULAS TO PROMOTE MYELINATION IN THE BRAIN” (NESTEC S.A., priority 2015, published 2018):

Tested on: brain myelination (myelin water fraction)
Experiment: Cross-sectional correlation analysis (GLM) of infant formula nutrient composition vs brain myelination by mcDESPOT MRI
Format: in vivo, human
Details: children up to 5 years fed different infant formulas during infancy; voxel-wise correlations, p<0.05 corrected; inter-variable correlation threshold 0.9
Method: MRI brain scans of infants and children between 0 and 5 years were acquired using a white matter imaging technique. This technique provides a quantitative measure, the Myelin Water Fraction (MWF), which is a surrogate marker of myelin content. When mapped as a function of time across early childhood, myelination trajectories can be generated.
Infant formula composition: six infant formulas fed to infants participating in study were analyzed for their composition/level of myelin-relevant nutrients.
Infants included in this study were drawn from a larger longitudinal study of normal brain and behavioral development: the Brown university Assessment of Myelination and Behavior Across Maturation (BAMBAM). To focus on neurotypical development, children with known potential risk factors for learning, neurologic, or psychiatric disorders were specifically excluded during recruitment and enrollment. Thus, children with in utero alcohol or illicit substance exposure, premature (<37 weeks gestation) or multiple birth, fetal ultrasound abnormalities, complicated pregnancy (e.g., preeclampsia), APGAR scores <8, NICU admission, neurological disorder (e.g., head injury, epilepsy), psychiatric or developmental disorders in the infant, parents or siblings (including maternal depression requiring medication) were excluded. Ongoing screenings, such as the MCAT for autism, or CBCL for behavioral problems, were further used to remove enrolled children with clinically concerning behaviors or overt medical conditions (such as autism spectrum disorders).
A combination of retrospective and prospective data were acquired from parents via detailed medical histories and parental interview on type of infant formula used, percentage of breastfeeding to formula feeding, and length of exclusive breastfeeding. This information was updated at each study visit, which occurred approximately every 6 months for children under 2 years, and yearly for older children. Using this information, children were categorized into one of 2 groups: #1. Exclusively formula-fed; and #2. Exclusively breastfed for at least 90 days (3 months). Children who were fed a combination of breastmilk and formula within 3 months were excluded from our analysis. Infants within the exclusively formula-fed group were further sub-divided based on parental reports of the main infant formula used throughout the first 3 months. Main formula was defined as that given 90% of the time or more (in the case were parents used an alternate brand during vacation, for example).
Using these criteria, 94 exclusively formula-fed infants and young children were selected into group #1. These included 13 children who received formula #2; 28 who received formula #5; 8 who received formula #3; 39 who received formula #4; 5 who received formula #1 and 1 who received formula #6. A sample of 52 exclusively breast-fed infants were also selected and matched to the over formula-fed group with regards to mean age, gestation duration, birth weight, male:female ratio, ethnicity ratio, maternal education, family size, and number of languages spoken in the home (in addition to English).
Each infant was scanned using the mcDESPOT (multicomponent Driven Equilibrium Single Pulse Observation of T1 and T2) white matter imaging technique Deoni et al. (Magn. Reson. Med. 2008, 60:1372-1387), which provides a quantitative measure of the myelin water fraction (MWF) at each imaging point throughout the brain. All infants were scanned during natural (i.e. non-sedated) sleep using acoustically-muffled mcDESPOT imaging protocols. Total imaging times ranged from 19 minutes for the youngest toddlers to 24 minutes for the older 4 year-old children.

Row | Compound | nutritional drivers for myelination indicated by the final general linear model
1 | phosphatidylinositol | identified drivers
2 | [Mg+2] [Magnesium] | identified drivers
3 | iron | identified drivers
4 | sphingomyelin | identified drivers
5 | [Ca+2] [calcium] | identified drivers
6 | phosphatidylcholine | identified drivers
7 | [P] [phosphorus] | identified drivers
8 | CCCCC/C=C\C/C=C\C/C=C\C/C=C\CCCC(=O)O [ARA, arachidonic acid] | identified drivers
9 | [Zn] [zinc] | identified drivers
